For series [1], the system named is HEK293. In words: Cytotoxicity against human HEK293 cells. It is filed as cell-based.
Series [2] is described as follows: Cytotoxicity against african green monkey COS1 cells assessed as cell survival at 50 uM relative to control. To be noted: chlorocebus aethiops, COS-1 cells; read-out: Survival. Type of series: cell-based.
A short description of series [3]: Cytotoxicity against human HEK293 cells assessed as cell survival at 50 uM relative to control. To be noted: read-out: Survival. Type of series: cell-based.
Series [4] is described as follows: Inhibition of TNFalpha-induced human NFkappaB activity in HEK293 cells incubated for 6 hrs followed by compound wash out measured after 5 mins by luciferase assay. Type of series: cell-based.
The test system of series [5] is HEK293. The series can be described thus: Inhibition of TNFalpha-induced human NFkappaB activity in HEK293 cells at 50 uM incubated for 6 hrs followed by compound wash out measured after 5 mins by luciferase assay. It is filed as cell-based.
Series [6] concerns the target T1, Retinoic acid receptor RXR-alpha (Homo sapiens, UniProt P19793).
T1 sequence (P19793 whole entry): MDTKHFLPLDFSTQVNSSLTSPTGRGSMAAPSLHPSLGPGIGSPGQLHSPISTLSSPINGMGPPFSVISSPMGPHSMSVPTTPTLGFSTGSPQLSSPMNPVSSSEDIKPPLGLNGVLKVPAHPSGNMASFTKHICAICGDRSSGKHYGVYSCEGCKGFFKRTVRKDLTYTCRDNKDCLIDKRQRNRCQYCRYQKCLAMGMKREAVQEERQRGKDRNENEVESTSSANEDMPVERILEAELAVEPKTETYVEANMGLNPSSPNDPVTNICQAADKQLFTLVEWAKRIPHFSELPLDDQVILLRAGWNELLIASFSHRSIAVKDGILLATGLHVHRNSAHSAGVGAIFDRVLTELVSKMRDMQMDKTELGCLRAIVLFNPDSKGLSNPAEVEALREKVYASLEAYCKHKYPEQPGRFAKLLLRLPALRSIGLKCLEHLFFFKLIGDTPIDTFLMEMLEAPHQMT
The series can be described thus: Agonist activity at human RXRalpha expressed in african green monkey COS1 cells assessed as induction of RXRE transcriptional activity after 12 hrs by luciferase reporter gene assay. Type of series: functional, cell-based, COS-1.

Series [7] addresses T2, Retinoic acid receptor RXR-alpha (Homo sapiens) (UniProt P19793).
T2 sequence (whole entry): T1 sequence (P19793 whole entry)
The series can be described thus: Agonist activity at human RXRalpha expressed in african green monkey COS1 cells assessed as induction of RXRE transcriptional activity at 12.5 uM after 12 hrs by luciferase reporter gene assay relative to control. Type of series: functional, cell-based. To be noted: COS-1.

The nature of series [8]: Cytotoxicity against african green monkey COS1 cells assessed as cell survival at 40 uM relative to control. It is filed as cell-based. To be noted: chlorocebus aethiops, COS-1 cells; read-out: Survival.

pEC50, pIC50: −log10 of the molar value.

With `NCCCn1c2c(c3ccc([N+](=O)[O-])cc3c1=O)C(=O)c1ccccc1-2`, the pIC50 is 4.77 with HEK293 [1] and 5.59 in series [4]. Also, the viability at 50 µM in series [2] and in series [3] was less than 50% each time. The inhibition in the series on HEK293 [5] was found to be 80.8%.

For the compound `CN(C)c1ccc2c3c(n(CCCNC(=O)OC(C)(C)C)c(=O)c2c1)-c1ccccc1C3=O`, the viability at 50 µM was determined as 102% in series [2] and 97.6% in series [3]. Also, in the series on HEK293 [5], the inhibition came out at 25.9%.

For the compound `CNc1ccc2c3c(n(CCCNC(=O)OC(C)(C)C)c(=O)c2c1)-c1ccccc1C3O` (stereo not drawn), the values for the viability at 50 µM in series [2] and in series [3] were 67.5% and 90.1%, respectively. The compound further had a pIC50 in series [4] of 6.40. Further, the inhibition in the series on HEK293 [5] turned out to be 83.4%.

With `CC(C)(C)OC(=O)NCCCn1c2c(c3ccc([N+](=O)[O-])cc3c1=O)C(=O)c1ccccc1-2`, the viability at 50 µM was 106% in series [2] and 101% in series [3]. Also, the inhibition in the series on HEK293 [5] came to 0%.

For the compound `Nc1ccc2c3c(n(CCCO)c(=O)c2c1)-c1ccccc1C3O` (stereo not drawn), the viability at 50 µM in series [2] worked out at 86.9%; in series [3], 118%. Further, in series [4], the pIC50 is 4.31. The inhibition with HEK293 [5] came to 57.8%.

On to `CC(=O)NCCCn1c2c(c3ccc([N+](=O)[O-])cc3c1=O)C(=O)c1ccccc1-2`, for which the viability at 50 µM came to 99.4% in series [2] and 69.1% in series [3]. The negative logarithm of the IC50 (pIC50) in series [4] was 4.41. In the series on HEK293 [5], this compound gave an inhibition of 87.4%.

In the case of `CC(=O)Nc1ccc2c3c(n(CCCN)c(=O)c2c1)-c1ccccc1C3O` (stereo not drawn), the viability at 50 µM in series [2] came out at 83.7%; in series [3], 99.2%. Further, the inhibition in the series with HEK293 [5] amounted to 0%.

Regarding `CC(=O)NCCCn1c2c(c3ccc(N)cc3c1=O)C(=O)c1ccccc1-2`, the viability at 50 µM in series [2] is 75.2%; in series [3], 106%. Besides, in series [4], the pIC50 is 4.84. In addition, in the series on HEK293 [5], the inhibition amounted to 81.8%. Moreover, in series [6], the pEC50 is 4.68. Moreover, the fold change (FC) in series [7] is 3.52.

For the compound `CC(=O)Nc1ccc2c3c(n(CCCN)c(=O)c2c1)-c1ccccc1C3=O`, the viability at 50 µM in series [2] amounted to 74.5%; in series [3] it was 122%. This compound also showed an inhibition in the series with HEK293 [5] of 0%. Further, the pEC50 in series [6] is less than 4.38. Besides, the fold change (FC) in series [7] is 3.55.

`O=C1c2ccccc2-c2c1c1ccc([N+](=O)[O-])cc1c(=O)n2CCCO`: the viability at 50 µM in series [2] turned out to be 91.4%; in series [3], 114%. Besides, the pIC50 in series [4] was 5.14. Also, the inhibition in the series on HEK293 [5] came to 72.8%.

For the compound `CC(=O)Nc1ccc2c3c(n(CCCN=[N+]=[N-])c(=O)c2c1)-c1ccccc1C3=O`, the results for the viability at 50 µM in series [2] and in series [3] were 93.1% and 115%, respectively. The same compound came in with an inhibition with HEK293 [5] of 0%.

Take `CN(C)c1ccc2c3c(n(CCCN)c(=O)c2c1)-c1ccccc1C3=O`: the viability at 50 µM in series [2] was less than 50%; in series [3], 110%. This compound had a pIC50 in series [4] of 4.49. In the series on HEK293 [5], this compound yielded an inhibition of 86.3%.

Regarding `CC(=O)Nc1ccc2c3c(n(CCCO)c(=O)c2c1)-c1ccccc1C3=O`, the figures for the viability at 50 µM in series [2] and in series [3] were 90.6% and 128%, respectively. In addition, the inhibition in the series on HEK293 [5] was determined as 53.9%.

Regarding `C=C(c1ccc(C(=O)O)cc1)c1cc2c(cc1C)C(C)(C)CCC2(C)C` [BEXAROTENE], the viability at 40 µM in series [8] amounted to 74.5%.

`CNc1ccc2c3c(n(CCCN)c(=O)c2c1)-c1ccccc1C3O` (stereo not drawn): the viability at 50 µM in series [2] stood at 63.6%; in series [3] it was 95%. This compound gave a pIC50 in series [4] of 6.15. The compound further registered an inhibition in the series with HEK293 [5] of 69.2%.

`O=C1c2ccccc2-c2c1c1ccc([N+](=O)[O-])cc1c(=O)n2CCCBr`: the viability at 50 µM in series [3] is 118%. The compound also gave an inhibition in the series with HEK293 [5] of 21.8%. The viability at 40 µM in series [8] is 100%.

Turning to `CNCCCn1c2c(c3ccc(N)cc3c1=O)C(O)c1ccccc1-2` (stereo not drawn), the viability at 50 µM in series [2] came to 84.1%; in series [3], 90.1%. Moreover, the pIC50 in series [4] was 6.22. Moreover, the inhibition in the series on HEK293 [5] was 83.7%.

Take `CNCCCn1c2c(c3ccc(N)cc3c1=O)C(=O)c1ccccc1-2`: the values for the viability at 50 µM in series [2] and in series [3] were 64.5% and 117%, respectively. In series [4], this compound had a pIC50 of 4.40. In the series with HEK293 [5], this compound came in with an inhibition of 63.1%. In addition, the fold change (FC) in series [7] was found to be 8.97.

In the case of `Nc1ccc2c3c(n(CCCO)c(=O)c2c1)-c1ccccc1C3=O`, the viability at 50 µM stood at 85.9% in series [2] and 116% in series [3]. This compound gave an inhibition in the series with HEK293 [5] of 53.2%.

In the case of `CNCCCn1c2c(c3ccc([N+](=O)[O-])cc3c1=O)C(=O)c1ccccc1-2`, the viability at 50 µM in series [2] is less than 50%; in series [3], 79.7%. The negative logarithm of the IC50 (pIC50) in series [4] is 5.43. Also, the inhibition in the series with HEK293 [5] was found to be 92.4%.

As for `Cc1ccc(S(=O)(=O)/C=C/C#N)cc1`, in series [4], the pIC50 was 5.70.

`Cc1ccc(S(=O)(=O)N[C@@H](Cc2ccccc2)C(=O)CCl)cc1` [TPCK] showed a pIC50 in series [4] of 5.29.

Turning to `NCCCn1c2c(c3ccc(N)cc3c1=O)C(O)c1ccccc1-2` (stereo not drawn), the viability at 50 µM in series [2] is 87.5%; in series [3], less than 50%. Further, in the series with HEK293 [5], the inhibition came out at 53.1%.

As for `Nc1ccc2c3c(n(CCCCl)c(=O)c2c1)-c1ccccc1C3=O`, the values for the viability at 50 µM in series [2] and in series [3] were 102% and 91.4%, respectively. The inhibition in the series on HEK293 [5] was 0%.

In the case of `CC(C)(C)OC(=O)NCCCn1c2c(c3ccc(N)cc3c1=O)C(=O)c1ccccc1-2`, the viability at 50 µM in series [2] was determined as 104%; in series [3], 107%. Also, the inhibition with HEK293 [5] turned out to be 0%.

In the case of `CNc1ccc2c3c(n(CCCNC(=O)OC(C)(C)C)c(=O)c2c1)-c1ccccc1C3=O`, the viability at 50 µM in series [2] was 94.8%; in series [3], 68.6%. In addition, the inhibition in the series on HEK293 [5] is 53.9%.

Take `CNc1ccc2c3c(n(CCCN)c(=O)c2c1)-c1ccccc1C3=O`: the figures for the viability at 50 µM in series [2] and in series [3] were less than 50% and 99.4%, respectively. In the series on HEK293 [5], this compound displayed an inhibition of 0%. For the same compound, the fold change (FC) in series [7] worked out at 6.09.

(Values after ChEMBL document CHEMBL2169830, “Identification, synthesis, and biological evaluation of the metabolites of 3-amino-6-(3'-aminopropyl)-5H-indeno[1,2-c]isoquinoline-5,11-(6H)dione (AM6-36), a promising rexinoid lead compound for the development of cancer chemotherapeutic and chemopreventive agents” (J Med Chem, 2012).)
